In US9724380B2, “Method and compositions for synchronizing time of insemination in gilts” (JBS UNITED ANIMAL HEALTH II LLC, priority 2012, dated 2017):

What was measured:
Type in all cases: in vivo, swine
gilts [1] = test: Example 5: ovulation monitored by transrectal ultrasonography after 100, 200 or 400 mcg triptorelin gel intravaginally at 120 h after MATRIX withdrawal; conditions: all treatments
Description: (§1) All gilts were individually fed MATRIX® as a top-dress for 14 or 15 days at the recommended rate of 15 mg/gilt/day. Gilts were withdrawn from MATRIX® feeding (last top-dress in the morning on Day 0) and allocated to each of the following treatments. Controls were vehicle gel treated (vehicle gel without triptorelin) at 120 (+/−2) hours following MATRIX® withdrawal (last top dress). The other gilts were given 100, 200 or 400 mcg triptorelin as the acetate in a methylcellulose gel formulation 120 (+/−2) hours following MATRIX® withdrawal. The four treatments were: • 1. Vehicle gel (VG): vehicle gel without triptorelin at 120 (+/−2) hours after MATRIX® withdrawal. • 2. TG 100: 100 mcg (2 mL 50 mcg/mL) triptorelin gel at 120 (+/−2) hours after MATRIX® withdrawal. • 3. TG 200: 200 mcg (2 mL 100 mcg/mL) triptorelin gel at 120 (+/−2) hours after MATRIX® withdrawal. • 4. TG 400: 400 mcg (2 mL 200 mcg/mL) triptorelin gel at 120 (+/−2) hours after MATRIX® withdrawal.
(§2) Triptorelin (pGlu-His-Trp-Ser-Tyr-D-Trp-Leu-Arg-Pro-Gly-NH2) was supplied in the acetate form, from Bachem, Torrance, Calif. (Item H-4075 CGMP grade). Triptorelin gel (100-400 mcg/2 mL dose) was formulated by Argenta (Auckland, NZ) in a gel composed of Methocel Premium A4000 (Dow Chemical), citrate buffer (pH 5.5), NaCl, methionine, and methyl and propyl parabens. Fifty-four milliliters of triptorelin gel (100 mcg triptorelin acetate/mL) was packaged in Amber Borosilicate Glass Serum Vials (610206-50) with a Gray Butyl Pharmaceutical Serum Vial Stopper (73828A-SS) with a Standard Aluminum Seal (SAS20NAT). […] MATRIX® was supplied as the US commercially available form.
Ovulation was monitored twice on Day 5 (8 hours and 16 hours post-treatment) and every 8 hours on Day 6 and Day 7 or until ovulation was confirmed or 176 hours following last MATRIX® feeding. The ovulatory status of all gilts was monitored by transrectal ultrasonography. An Aloka 500 ultrasound machine is used for this purpose, with a 7.5 MHz linear array transducer attached to a fixed-angle PVC stabilizing rod to facilitate insertion into the rectum. The transducer and PVC rod are coated with a gynecological lubricant and gently inserted into the rectum until the ovaries can be visualized, one at a time. The diameters of the three largest follicles were recorded (to the nearest 0.1 mm) at each scanning. A gilt was declared to have ovulated when the number of large follicles (≧6.5 mm) fell to less than 3.
A single 2 mL dose of triptorelin gel or vehicle gel was deposited within approximately 1-2 cm posterior to the cervix with a catheter similar to those used for artificial insemination. The dose was delivered using a standard multi-dose applicator attached to the catheter. A new disposable sheath, which surrounds the catheter, was used for each gilt.

gilts [2] = test: Example 3: estrus observation post-MATRIX; conditions: younger gilts at the second site, all treatments
Description: Three hundred twelve (312) gilts were fed MATRIX® as a top-dress for 14 days at the recommended rate of 15 mg/gilt/day. The last feeding of MATRIX® was at 6:30 AM (Day 0). One hundred four gilts were allocated to each of the following treatments: • 1. Group 1, Controls (n=104); MATRIX® treated, but not OvuGel™ treated, inseminated daily during estrus, as is normally practiced at the site (average of 1.8 inseminations per gilt). • 2. Group 2 (n=104); OvuGel™ treated at 7:00 am (+/−1.5 hours) on Day 5 and inseminated at 2 to 4 hours post-OvuGel™ treatment on Day 5 if expressing estrus. All gilts inseminated once on Day 6, 26 hours (+/−2 hrs) post-OvuGel™ treatment, regardless of estrus status. • 3. Group 3 (n=104); OvuGel™ treated at 7:00 am (+/−1.5 hours) on Day 5 and inseminated once at 2 to 4 hours post-OvuGel™ treatment on Day 5 and again on Day 6, 26 hours (+/−2 hrs) post-OvuGel™ treatment, without regard to estrus on either day.
(§3) Gilts were housed in individual pens. Boars were housed at least 12 m away and downwind. […] To facilitate detection of estrus, a mature boar was walked slowly in the alley in front of the gilt's pen, exposing each gilt to visual, auditory and olfactory signals from the boar for up to 5 minutes. […]

gilts [3] = test: Example 2: estrus observation post-MATRIX; conditions: older gilts at the first site, all treatments
Description: Two hundred ninety-seven (297) gilts were fed MATRIX® as a top-dress for 14 days at the recommended rate of 15 mg/gilt/day. The last feeding of MATRIX® was at 5:30 AM (Day 0). Approximately one hundred gilts were allocated to each of the following treatments: • 1. Group 1, Controls (n=100); MATRIX® treated, but not OvuGel™ treated, inseminated daily during estrus, as is normally practiced (average of 1.9 inseminations per gilt). • 2. Group 2 (n=98); OvuGel™ treated at 6:30 am (+/−1 hr) on Day 5 and inseminated at 2 to 11 hours post-OvuGel™ treatment on Day 5 if expressing estrus. All gilts inseminated once on Day 6, 26 hours (+/−2.5 hrs) post-OvuGel™ treatment, regardless of estrus status. • 3. Group 3 (n=99); OvuGel™ treated at 6:30 am (+/−1 hr) on Day 5 and inseminated once at 2.5 to 9.5 hours post-OvuGel™ treatment on Day 5 and again on Day 6, 26.5 hours (+/−3 hrs) post-OvuGel™ treatment, without regard to estrus on either day.
as §3

gilts [4] = test: Example 5: estrus observation after triptorelin gel dose groups; conditions: all treatments (did not differ among treatments)
Description: as §1, §2
For post-treatment estrus detection, gilts were housed in individual pens. Boars were housed in separate rooms, and/or at least 12 m away and downwind. To elicit signs of estrus, a mature boar was walked slowly in the alley in front of the gilts' crates, exposing each test gilt to visual, auditory and olfactory signals from the boar for up to 5 minutes. In keeping with standard practice at commercial farms, while the boar was near the front of the gilt's crate, estrus was tested by an experienced person applying back pressure to the midsection of the gilt combined with side rubbing. Estrus was confirmed when a gilt stood rigidly to the back pressure, with no vocalization and with some indication of an ear reflex. Gilts were not exposed to boars during the first three days after withdrawal of MATRIX® (Day 0 to Day 2). Estrus detection was performed daily on all gilts from Day 3 to Day 7.
A single 2 mL dose of triptorelin gel or vehicle gel was deposited within approximately 1-2 cm posterior to the cervix with a catheter similar to those used for artificial insemination. The dose was delivered using a standard multi-dose applicator attached to the catheter. […]

SMILES: C=CC[C@]1(O)CC[C@H]2[C@@H]3CCC4=CC(=O)CCC4=C3C=C[C@@]21C [MATRIX®, altrenogest]
- gilts ovulated within the experimental period, overall (gilts [1]): 94%
- gilts that showed estrus on Day 5 (gilts [2]): 7.4%
- gilts that first expressed estrus on Day 5 post-MATRIX, average (gilts [3]): 30.1%
- interval from last feeding of MATRIX to estrus (gilts [4]): 146 ± 22 h
- percentage of gilts which expressed estrus after the last feeding of MATRIX (gilts [4]): 97%
